What was measured:
[1] = system: normal NK cells expanded with K562-aAPC; assay: percent inhibition of viability; higher = more inhibition; settings: 72 h, IL-2 2.5 ng/mL
Description: (§1)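 Drug sensitivity and resistance testing on K562-aAPC-expanded normal NK cells: 5 concentrations (10-fold steps over a 10,000-fold range), 72 h at 37 °C, viability by CellTiter-Glo normalised to DMSO and benzethonium chloride controls; DSS from the fitted curve.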

[2] = system: KAI3 (IL-2 2.5 ng/mL); assay: drug sensitivity score (DSS) (DSS units); higher = more sensitive; extreme values may be limits of the assay; settings: 72 h
[3] = system: IMC-1 (IL-2 20 ng/mL); assay: as above; settings: 72 h
[4] = system: DERL-7 (IL-2 2.5 ng/mL); assay: as above; settings: 72 h
[5] = system: NK-92 (IL-2 2.5 ng/mL); assay: as above; settings: 72 h
[6] = system: normal primary NK cells, pool 2 (3 donors) (IL-2 2.5 ng/mL); assay: as above; settings: 72 h
[7] = system: NKL (IL-2 2.5 ng/mL); assay: as above; settings: 72 h
[8] = system: KHYG-1 (IL-2 2.5 ng/mL); assay: as above; settings: 72 h
[9] = system: normal primary NK cells, pool 3 (3 donors) (IL-2 2.5 ng/mL); assay: as above; settings: 72 h
[10] = system: NK-YS (IL-2 2.5 ng/mL); assay: as above; settings: 72 h
[11] = system: YT (IL-2 2.5 ng/mL); assay: as above; settings: 72 h
[12] = system: SNK-6 (IL-2 2.5 ng/mL); assay: as above; settings: 72 h
[13] = system: normal primary NK cells, pool 1 (3 donors), resting (IL-2 0 ng/mL); assay: as above; settings: 72 h
[14] = system: normal primary NK cells, pool 1 (3 donors) (IL-2 2.5 ng/mL); assay: as above; settings: 72 h
[15] = system: KAI3 (IL-2 2.5 ng/mL); assay: percent inhibition of viability; higher = more inhibition; settings: 72 h
[16] = system: IMC-1 (IL-2 20 ng/mL); assay: as above; settings: 72 h
[17] = system: DERL-7 (IL-2 2.5 ng/mL); assay: as above; settings: 72 h
[18] = system: NK-92 (IL-2 2.5 ng/mL); assay: as above; settings: 72 h
[19] = system: normal primary NK cells, pool 2 (3 donors) (IL-2 2.5 ng/mL); assay: as above; settings: 72 h
[20] = system: NKL (IL-2 2.5 ng/mL); assay: as above; settings: 72 h
[21] = system: KHYG-1 (IL-2 2.5 ng/mL); assay: as above; settings: 72 h
[22] = system: normal primary NK cells, pool 3 (3 donors) (IL-2 2.5 ng/mL); assay: as above; settings: 72 h
[23] = system: NK-YS (IL-2 2.5 ng/mL); assay: as above; settings: 72 h
[24] = system: YT (IL-2 2.5 ng/mL); assay: as above; settings: 72 h
[25] = system: SNK-6 (IL-2 2.5 ng/mL); assay: as above; settings: 72 h
[26] = system: normal primary NK cells, pool 1 (3 donors), resting (IL-2 0 ng/mL); assay: as above; settings: 72 h
[27] = system: normal primary NK cells, pool 1 (3 donors) (IL-2 2.5 ng/mL); assay: as above; settings: 72 h
[28] = system: normal NK cells expanded with K562-aAPC; assay: drug sensitivity score (DSS) (DSS units); higher = more sensitive; extreme values may be limits of the assay; settings: 72 h; IL-2 2.5 ng/mL
Description: as §1

Clc1ccccc1C(c1ccccc1)(c1ccccc1)n1cccn1 [TRAM-34] (max concentration tested 1000 nM)
percent inhibition of viability [%]
Settings | 0.1 nM | 1 nM | 10 nM | 100 nM | 1000 nM
[1] | -6.55 | 1.68 | -0.18 | 9.02 | 12.7
[15] | -2.69 | 4.59 | -1.47 | 2.61 | 4.51
[16] | -7.73 | 1.38 | 0.84 | 6.67 | 8.82
[17] | 2.4 | -1.24 | 1.99 | -0.74 | 3.63
[18] | -8.56 | -5.28 | -2.17 | -14.1 | 11.6
[19] | -11.6 | -1.76 | 12.1 | -4.19 | 0.97
[20] | -1.68 | -6.27 | 6.64 | 4.13 | 5.01
[21] | -1.11 | 0.96 | -3.26 | 0.95 | -0.5
[22] | -3.16 | -4.73 | 5.06 | -3.53 | 6.24
[23] | 1.9 | 0.93 | 2.82 | 2.55 | 8.67
[24] | -3.41 | -5.82 | -7.53 | -11.9 | 12.2
[25] | 5.28 | 12.6 | 2.07 | 24 | 3.1
[26] | -5.83 | -36.5 | -10.7 | -18.8 | -3.17
[27] | 3.23 | -13.1 | 1.01 | -11 | -5.83

Settings | drug sensitivity score
[2] | 0
[3] | 0
[4] | 0
[5] | 0
[6] | 0
[7] | 0
[8] | 0
[9] | 0
[10] | 0
[11] | 0
[12] | 0
[13] | 0
[14] | 0
[28] | 0.49

OCCn1cc(-c2cnc3nnn(Cc4ccc5ncccc5c4)c3n2)cn1 (max concentration tested 2500 nM)
percent inhibition of viability [%]
Settings | 0.25 nM | 2.5 nM | 25 nM | 250 nM | 2500 nM
[1] | -1.81 | -5.59 | -1.09 | 4.36 | 10.7
[15] | -0.76 | -5.72 | 5.28 | 8.13 | 18.2
[16] | -3.49 | 3.05 | -2.66 | 5.69 | 6.58
[17] | -0.9 | -0.84 | 0.34 | -3 | -8.26
[18] | -3.39 | 13.7 | -1.59 | 11.9 | 33.2
[19] | -2.43 | 3.77 | 5.1 | -2.16 | 4.71
[20] | -0.17 | 5.36 | 16.3 | 12 | 17.6
[21] | -6.94 | -4.08 | -4.27 | 1.49 | 7.29
[22] | -4.09 | 3.45 | 7.9 | -5.94 | 7.18
[23] | -3.62 | -4.61 | -4.57 | 1.28 | 16.9
[24] | -6.67 | -5.28 | -6.34 | -0.92 | 12.8
[25] | -14.8 | -17.6 | -15.8 | -7.55 | 1.66
[26] | -7.9 | 6.66 | 4.48 | 7.02 | 11.4
[27] | -4.03 | 5.55 | 18.1 | 6.24 | 10.1

Settings | drug sensitivity score
[2] | 0.81
[3] | 0
[4] | 0
[5] | 3.17
[6] | 0
[7] | 3.7
[8] | 0
[9] | 0
[10] | 0.5
[11] | 0.06
[12] | 0
[13] | 0.02
[14] | 0.34
[28] | 0.06

CCCCCOC(=O)Nc1nc(=O)n([C@@H]2O[C@H](C)[C@@H](O)[C@H]2O)cc1F [Capecitabine] (max concentration tested 10000 nM)
percent inhibition of viability [%]
Settings | 1 nM | 10 nM | 100 nM | 1000 nM | 10000 nM
[1] | -1.3 | 3.24 | -1.87 | -1.09 | -2.22
[15] | 1.53 | 10.3 | 11 | 18.4 | 51.4
[16] | -3.3 | -4.34 | -6.24 | -6.22 | -8.14
[17] | 0.46 | 4.42 | -2.34 | 4.15 | 52.2
[18] | -10.2 | 1.4 | 2.48 | -3.88 | 10.2
[19] | -2.47 | 1.21 | -0.29 | -0.41 | -2.27
[20] | -14.2 | -5.91 | -4.8 | 5.16 | -0.14
[21] | -4.65 | -8.98 | -2.6 | -4.39 | -2.75
[22] | 0.26 | 5.64 | 1.92 | 7.05 | 2.46
[23] | -5.86 | -8.43 | -2.42 | -0.04 | 39
[24] | -3.7 | -7.15 | -2.55 | -0.84 | 48.6
[25] | 12 | 11.5 | 0.05 | 16.4 | 72.5
[26] | -8.89 | -7.83 | 13.7 | 10.2 | 11
[27] | -11.1 | -11.6 | 0.78 | -4.13 | -5.4

Settings | drug sensitivity score
[2] | 4.96
[3] | 0
[4] | 3.42
[5] | 0
[6] | 0
[7] | 0
[8] | 0
[9] | 0
[10] | 1.92
[11] | 2.47
[12] | 6.62
[13] | 1.76
[14] | 0
[28] | 0

CNC(=O)c1ccc(C)c(-n2c(C)cc(OCc3ccc(F)cc3F)c(Br)c2=O)c1 (max concentration tested 1000 nM)
percent inhibition of viability [%]
Settings | 0.1 nM | 1 nM | 10 nM | 100 nM | 1000 nM
[1] | -9.29 | -8.5 | -9.81 | -3.39 | 11.1
[15] | -0.38 | 1.93 | 8.49 | 20.8 | 36
[16] | -9.65 | -8.9 | -7.96 | -3.82 | 12.4
[17] | -0.31 | -4.89 | -4.27 | 2.58 | 1.48
[18] | -1.67 | -6.84 | -3.84 | -1.12 | 28.7
[19] | -5.3 | -4.39 | 0.85 | -1.04 | -5.85
[20] | -10.5 | -7 | 9.32 | 26.1 | 43.8
[21] | -4.44 | -7.81 | -8.38 | -3.53 | 12.3
[22] | -6.51 | -4.02 | 4.48 | 7.49 | 0.09
[23] | -6.34 | -5.21 | 0.76 | 7.92 | 26.5
[24] | -3.68 | -3.72 | -2.87 | 1.27 | 21.9
[25] | -18.8 | -0.3 | -20.7 | -13.9 | -14.7
[26] | 4.88 | 3.54 | 13.7 | 4.12 | 7.14
[27] | 0.91 | 0.08 | 13.3 | 13.8 | 17.8

Settings | drug sensitivity score
[2] | 4.23
[3] | 0.02
[4] | 0
[5] | 1.12
[6] | 0
[7] | 5.52
[8] | 0.02
[9] | 0
[10] | 2.15
[11] | 0.89
[12] | 0
[13] | 0
[14] | 3.24
[28] | 0

O=c1ncn2nc(Sc3ccc(F)cc3F)ccc2c1-c1c(Cl)cccc1Cl [VX 745] (max concentration tested 10000 nM)
percent inhibition of viability [%]
Settings | 1 nM | 10 nM | 100 nM | 1000 nM | 10000 nM
[1] | -6.57 | -6.69 | -2.69 | 10.6 | 7.59
[15] | 3.09 | 5.9 | 15.3 | 25.4 | 59.7
[16] | -8.82 | -3.76 | -6.12 | 4.33 | 24.7
[17] | 0.51 | 2.58 | 3.17 | -1.44 | 23.6
[18] | -11.3 | -20.3 | -9.85 | 11 | 37.8
[19] | -5.75 | -3.08 | 5.63 | 1.25 | 19.1
[20] | -15.3 | -9.23 | 3.92 | 36 | 58.3
[21] | -5.86 | -3.96 | -4.73 | 1.64 | 25
[22] | -1.25 | -5.79 | 8.52 | -4.71 | 13.8
[23] | -7.93 | -3.47 | 3.09 | 15.2 | 47.7
[24] | -3.02 | -3.06 | -2.2 | 8.23 | 29.8
[25] | -5.31 | -15.8 | -5.14 | 3.14 | 26.2
[26] | 13.8 | 12.2 | 18.8 | 9.48 | 37.9
[27] | 1.17 | 8.88 | 0.28 | 10.7 | 23.3

Settings | drug sensitivity score
[2] | 6.91
[3] | 1.58
[4] | 0.75
[5] | 3.48
[6] | 0.67
[7] | 7.53
[8] | 1.17
[9] | 0.07
[10] | 4.52
[11] | 2.49
[12] | 1.52
[13] | 5.57
[14] | 1.96
[28] | 0.12
